For orientation: melting point means the temperature of the solid-liquid transition. The mortality is the share of the test organisms that died.

We go through 37 compounds from patent US10781177B2, “Pyridine compound and use thereof” (Nippon Soda Co., Ltd., priority 2016, dated 2020).

Tested on in the first data set: not given
Assay: not given
Settings: not given
In the case of `COC(=O)Oc1c(C)c(C)cc(C(C)C)c1Cc1ccc(-c2ccc(C(C)=NOC3CCC(C(F)(F)F)CC3)cc2)cc1` (stereo not shown) [7-53], the melting point lay within 58 to 59 °C.
Still for that read-out and setting: the value for `Cc1nc(C(C)C)c(Cc2ccc3sc4ccccc4c3c2)c(O)c1C` [7-32] was 300 °C; that for `Cc1nc(C)c(Cc2cc(-c3ccc(C(F)(F)F)cc3)on2)c(O)c1C` [7-5] was 200 °C; that for `Cc1nc(C(C)C)c(Cc2ccc(NC(=O)CC(C)(C)C)cc2)c(O)c1C` [7-52] was 300 °C.
The same measure, in the same setting: the value for `Cc1nc(C(C)C)c(Cc2ccc3ccccc3c2)c(O)c1C` [7-11] was 268 to 270 °C.
The same measure, in the same setting: the value for `CCO/N=C(/NC(=O)C(F)(F)C(F)(F)F)c1ccc(Cc2c(C(C)C)nc(C)c(C)c2OC(=O)OC)cc1` [7-46] was 98 to 100 °C.
`COC(=O)Oc1c(C)c(C)nc(C(C)C)c1Cc1ccc2ccc(C(F)(F)F)nc2c1` [7-27] gave a melting point of 125 to 126 °C.
The same measure, in the same setting: the result for `COC(=O)Oc1c(C)c(C)nc(C(C)C)c1Cc1cccc2c1oc1ccccc12` [7-31] reads 114 to 116 °C; that for `COc1c(C)c(C)nc(C(C)C)c1Cc1ccc(C2CCC3(CC2)OCCO3)cc1` [7-42], 107 to 108 °C; that for `CCO/N=C(/NC(=O)C(F)(F)C(F)(F)F)c1ccc(Cc2c(C(C)C)nc(C)c(C)c2O)cc1` [7-45], 210 to 212 °C.
Same read-out and setting: the result for `Cc1nc(C(C)C)c(Cc2ccc3c(c2)C(c2ccc(F)cc2)CC3)c(O)c1C` (stereo not shown) [7-28] reads 221 to 224 °C; that for `CCO/N=C(/NC(=O)C1CCC(C)CC1)c1ccc(Cc2c(C(C)C)nc(C)c(C)c2O)cc1` (stereo not shown) [7-43], 101 to 115 °C.
The same measure, in the same setting: the result for `C=CCOc1c(C)c(C)nc(C)c1CN1C(=O)c2ccccc2C1=O` [7-7] reads 145 to 147 °C.
As for `COc1c(C)c(C)nc(C(C)C)c1Cc1ccc(NC(=O)CC(C)(C)C)cc1` [7-51], the melting point fell in the range of 154 to 155 °C.
`Cc1nc(C(C)C)c(Cc2ccc3ncccc3c2)c(O)c1C` [7-21] showed a melting point of 254 to 256 °C.
Still for that read-out and setting: the result for `COCCC(=O)NC1CCc2cc(Cc3c(C(C)C)nc(C)c(C)c3O)ccc21` (stereo not shown) [7-34] reads 115 to 120 °C; that for `Cc1nc2cc(Cc3c(C(C)C)nc(C)c(C)c3O)ccc2s1` [7-13], 284 to 286 °C; that for `CC(=O)Oc1c(C)c(C)nc(C)c1Cc1cc(-c2ccc(C(F)(F)F)cc2)on1` [7-6], 170 to 173 °C.
For `Cc1nc(C(C)C)c(Cc2ccc3cc(C(F)(F)F)ccc3c2)c(O)c1C` [7-24], the melting point lay in the range of 268 to 269 °C.
On the same count and under the same terms, the result for `COC(=O)Oc1c(C)c(C)nc(C(C)C)c1Cc1ccc2ncccc2c1` [7-22] reads 127 to 128 °C; that for `Cc1nc(C(C)C)c(Cc2ccc3sc(C(F)(F)F)nc3c2)c(O)c1C` [7-19], 273 to 274 °C; that for `Cc1nc(C(C)C)c(Cc2ccc3ccc(C(F)(F)F)nc3c2)c(O)c1C` [7-26], 290 to 292 °C.
On the same count and under the same terms, the result for `COC(=O)Oc1c(C)c(C)nc(C(C)C)c1Cc1ccc2sc3ccccc3c2c1` [7-33] reads 154 to 155 °C; that for `Cc1nc(C(C)C)c(Cc2cccc3c2oc2ccccc23)c(O)c1C` [7-30], 300 °C.
As for `Cc1nc(C(C)C)c(Cc2cccc3c2CCC3c2ccc(F)cc2)c(O)c1C` (stereo not shown) [7-17], the melting point lay within 296 to 298 °C.
The same measure, in the same setting: the value for `Cc1nc(C(C)C)c(Cc2ccc(-c3ccc(OC(F)(F)F)cc3)s2)c(O)c1C` [7-8] was 250 °C; that for `COC(=O)Oc1c(C)c(C)nc(C(C)C)c1Cc1ccc(C(=O)NC(=O)C2CCC(C)CC2)cc1` (stereo not shown) [7-47] was 169 to 171 °C.
Same read-out and setting: the result for `Cc1nc(C(C)C)c(Cc2ccc3c(c2)CCC3c2ccc(F)cc2)c(O)c1C` (stereo not shown) [7-15] reads 260 to 262 °C; that for `Cc1nc(C)c(Cc2cc(-c3ccc(C(F)(F)F)cc3)on2)c(OCc2ccccc2)c1C` [7-4], 118 to 121 °C.

The test system of another data set is bean aphid. The data set is described as follows: Efficacy confirmation test on bean aphid. Type of data set: in vivo. As to conditions: 125 ppm sprayed on cowpea seedlings with bean aphid nymphs, 4th day after spraying; read-out: Mortality rate (converted). The protocol:
(§1) An emulsion was prepared in the same manner as in Test Example 1. The emulsion was diluted with water so that the compound of the present invention is to be 125 ppm to obtain a chemical solution.
Cowpea plants were raised in No. 3 pots and inoculated with bean aphid nymphs on primary leaves. The chemical solution was sprayed on the cowpea seedlings. The cowpea seedlings were placed in a thermostatic chamber at a temperature of 25° C. and a humidity of 60%. On the 4th day after spraying, the life and death of the aphid were determined and the mortality rate was calculated. The test was performed in duplicate.
(§2) The mortality rate was calculated in the same manner as in Test Example 3.
Regarding `COC(=O)Oc1c(C)c(C)nc(C(C)C)c1Cc1ccc(-c2noc(C(F)(F)F)n2)cc1` [1-44, 2-isopropyl-5,6-dimethyl-3-(4-(5-(trifluoromethyl)-1,2,4-oxadiazole-3-yl)benzyl) pyridine-4-yl methyl carbonate], the mortality at 125 ppm is 100%.
On the same count and under the same terms, the value for `COC(=O)Oc1c(C)c(C)nc(C(C)C)c1Cc1ccc(-c2ccc(OC(F)(F)F)cc2)s1` [7-9] was 100%.
On the same count and under the same terms, the result for `COC(=O)Oc1c(C)c(C)nc(C)c1Cc1ccc(Oc2ccc(OC(F)(F)F)cc2)cc1` [1-3, methyl (2,3,6-trimethyl-5-((4-(4-(trifluoromethoxy)phenoxy)phenyl)methyl)-4-pyridyl) carbonate] reads 100%; that for `COC(=O)Oc1c(C)c(C)nc(C(C)C)c1Cc1ccc(Oc2ccc(OC(F)(F)F)cc2)cc1` [1-9, (2-isopropyl-5,6-dimethyl-3-((4-(4-(trifluoromethoxy)phenoxy)phenyl)methyl)-4-pyridyl) methyl carbonate], 100%.

The next data set has as its system Tetranychus kanzawai. The data set is described as follows: Efficacy confirmation test on Tetranychus kanzawai. As to conditions: 125 ppm sprayed on kidney bean seedlings with female imagoes, 10th day after spraying, read-out: Mortality rate (converted). Type of data set: in vivo. The protocol:
as §1
Kidney bean plants were raised in 3 pots, and inoculated with 10 female imagoes of tetranychus kanzawai on primary leaves. The medicinal solution was sprayed on the kidney bean seedlings. The kidney bean seedlings were placed in a thermostatic chamber at a temperature of 25° C. and a humidity of 65%. On the 10th day after spraying, the survival and death of imagoes of tetranychus kanzawai were determined and the mortality rate was calculated. The test was performed in duplicate.
as §2
With `COC(=O)Oc1c(C)c(C)nc(C(C)C)c1Cc1ccc(-c2noc(C(F)(F)F)n2)cc1` [1-44, 2-isopropyl-5,6-dimethyl-3-(4-(5-(trifluoromethyl)-1,2,4-oxadiazole-3-yl)benzyl) pyridine-4-yl methyl carbonate], the mortality at 125 ppm was 100%.
On the same count and under the same terms, the result for `COC(=O)Oc1c(C)c(C)nc(C(C)C)c1Cc1ccc2c(c1)CCC2c1ccc(F)cc1` (stereo not shown) [7-16] reads 100%; that for `COC(=O)Oc1c(C)c(C)nc(C)c1Cc1ccc(Oc2ccc(OC(F)(F)F)cc2)cc1` [1-3, methyl (2,3,6-trimethyl-5-((4-(4-(trifluoromethoxy)phenoxy)phenyl)methyl)-4-pyridyl) carbonate], 100%.
Same read-out and setting: the value for `COC(=O)Oc1c(C)c(C)nc(C(C)C)c1Cc1ccc2nc(C(F)(F)F)ccc2c1` [7-25] was 100%; that for `COC(=O)Oc1c(C)c(C)nc(C(C)C)c1Cc1ccc2ccccc2c1` [7-12] was 100%; that for `COC(=O)Oc1c(C)c(C)nc(C(C)C)c1Cc1ccc2sc(C(F)(F)F)nc2c1` [7-20] was 100%.
On to `COC(=O)Oc1c(C)c(C)nc(C(C)C)c1Cc1ccc(Oc2ccc(OC(F)(F)F)cc2)cc1` [1-9, (2-isopropyl-5,6-dimethyl-3-((4-(4-(trifluoromethoxy)phenoxy)phenyl)methyl)-4-pyridyl) methyl carbonate], for which the mortality at 125 ppm is 100%.
